Measurements published in patent US10577349B2 (Sanford Burnham Prebys Medical Discovery Institute, priority 2015, dated 2020).
≈ marks a conversion by molar mass, not a printed value.

Legend:
[1] = target: EmCV Cap-independent translation; assay: In vitro translation assay, FF-EmCV-Ren construct, cap-independent (Ren luciferase); format: biochemical, rabbit reticulocyte lysates
Method in brief: (§1)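 Rabbit reticulocyte lysate with -Met/-Leu translation mixes pre-incubated with compound 1 h at room temperature, then 0.1 μg bicistronic RNA added and translated 2 h at 30° C. Dual-Glo read-out: FF signal reports cap-dependent, Ren signal IRES-driven translation. Counter assay adds compound after translation to flag luciferase interference.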

[2] = target: HCV cap-dependent translation; assay: In vitro translation assay, FF-HCV-Ren construct, cap-dependent (FF luciferase); format: biochemical, rabbit reticulocyte lysates
Method in brief: as §1

[3] = Aqueous Solubility in 1xPBS, pH 7.4; format: physicochemical; conditions: pH 7.4, aqueous buffer
eIF4F complex = target: T1, eIF4F complex (Homo sapiens, UniProt Q04637); assay: m7GTP pull-down assay, UACC903 melanoma cells; format: cell-based
T1 construct: PLX4032), or Compound 38; endogenous in cells; host or cells: A375, A375R, Lu1205R, WM793R melanoma cells
Procedure: As previously described (Dowling R J, et al. mTORC1-mediated cell proliferation, but not cell growth, controlled by the 4E-BPs. Science. 2010; 328:1172-6), cells growing in 100 mm plates were washed (cold PBS), collected, and lysed in 50 mM MOPS/KOH (7.4), 100 mM NaCl, 50 mM NaF, 2 mM EDTA, 2 mM EGTA, 1% NP40, 1% Na-DOC, 7 mM β-mercaptoethanol, protease inhibitors and phosphatase inhibitor cocktail (Roche). Lysates were incubated with m7-GDP-agarose beads (Jena Bioscience) for 20 minutes, washed 4 times with the washing buffer containing 50 mM MOPS/KOH (7.4), 100 mM NaCl, 50 mM NaF, 0.5 mM EDTA, 0.5 mM EGTA, 7 mM (3-mercaptoethanol, 0.5 mM PMSF, 1 mM Na3VO4 and 0.1 mM GTP, and bound proteins were eluted by boiling the beads in loading buffer. m7-GDP-agarose pulled down material was analyzed by Western blot analysis.
The dissociation of eIF4G1 from the eIF4F complex was determined using m^7GTP-agarose pull-down, which captures the eIF4F complex. […] Proteins prepared from UACC903 melanoma cells were treated with indicated Compound 38 concentrations and incubated with m^7GTP-agarose beads to capture the eIF4F complex. Shown is dose-dependent inhibition of eIF4G1 binding to eIF4E, concomitant with increased binding of inhibitory 4E-BP1 to eIF4E. Bottom, the total cell lysate.

[4] = test system: UACC903 and A375 cell lines; assay: Western blot validation of RPPA data; format: cell-based, human
Procedure: Cells were rinsed with PBS and lysed in culture plates with lysis buffer (50 mM Tris-HCl, pH 7.4, 150 mM NaCl, 1% NP-40, 1 mM EDTA, 10 μg/ml aprotinin, 1 μg/ml pepstatin A, 10 μg/ml leupeptin, 1 mM phenylmethylsulfonyl fluoride, and 1 mM sodium orthovanadate). Protein concentration was determined using Coomassie Plus Protein Assay Reagent (Thermo Scientific). Equal amounts of cell lysate proteins (50 μg) were resolved by SDS-PAGE and transferred to polyvinylidene difluoride membranes (PerkinElmer Life Sciences). Membranes were blocked with 5% BSA/TBST for 1 h and incubated with primary antibodies for 1 h at room temperate or overnight at 4° C., with shaking. Following three TBST washes, membranes were incubated for 1 h at room temperature with goat anti-rabbit Alexa Fluor 680 F(ab′)2 or goat anti-mouse IRDye 800 F(ab′)2 diluted 1:10,000. Bound antibodies were detected using the Odyssey Infrared Imaging System (LiCor Biosciences), or by exposing them to X-ray blue film.
A reverse phase protein array (RPPA) analysis of BRAF- and NRAS-mutant melanomas was performed to identify protein networks affected by Compound 38 (Table 4).

[5] = test system: Nras^Q61K/Ink4a^−/− melanoma tumors; assay: Inducible Nras^Q61K/Ink4a^−/− genetic melanoma model; format: in vivo, mice; conditions: 0.5 mg/kg intraperitoneal twice a week from week 11; compared with control nontreated group
Procedure: In vivo, Compound 38 was evaluated using an inducible Nras^Q61K/Ink4a^−/− genetic model in which melanoma tumors emerge within 16 to 20 weeks (FIG. 20). Administration of Compound 38 only, starting 11 weeks after genetic inactivation of Ink4a and induction of […] (about 10-14 days prior to tumor appearance), delayed tumor onset (from 20-26 weeks), and reduced tumor incidence, by 50%, compared with the control nontreated group. Mice of the Nras^Q61K:Ink4a^−/− genotype or WT mice (38-40 mice for each genotype) were administered vehicle or Compound 38 at 0.5 mg/kg by intraperitoneal injection twice a week starting at week 11 after Nras^Q61K activation and Ink4a inactivation. Tumor development was monitored twice per week. Latency and frequency of melanoma development over the 21-week treatment period (weeks 11-32) are shown.

With `O=C(/C=C/c1cncc(F)c1)c1c(-c2ccccc2)c2cc(Cl)ccc2[nH]c1=O` [Compound 38, 6-Chloro-3-[3-(5-fluoro-pyridin-3-yl)-acryloyl]-4-phenyl-1H-quinolin-2-one] the IC50 [1] was 2 to 10 µM, the IC50 [2] was 2 to 10 µM and the solubility [3] was 5.6 µg/mL (≈ 13.8 µM). For the same compound, the “dissociation of eIF4G1 from the eIF4F complex (m7GTP-agarose pull-down)” value (eIF4F complex) was “dissociated eIF4G1 from the eIF4E in a dose-dependent manner”, the “Western blot: phosphorylation of S6, mTOR, P70S6K, TSC2 and 4E-BP1” value [4] was “dose dependent inhibitory effects” and the reduced tumor incidence [5] was 50%. The “tumor onset, delayed (from - to)” value [5] was 20-26 weeks.
